Assay results reported in US20050032783A1, “Use of CGRP antagonists in treatment and prevention of hot flushes in prostate cancer patients” (Boehringer Ingelheim International GmbH, priority 2003, published 2005).

System: increased blood flow through the facial skin caused by endogenous CGRP
Experiment: Facial skin blood flow increase after trigeminal ganglion stimulation in marmosets (laser Doppler)
Assay type: in vivo
Details: anaesthetised marmosets; i.v. 5 min before the 2nd and 3rd stimulation periods; trigeminal ganglion stimulation 10Hz, 2 mA, 2 msec, for 30 sec
From the text: The efficacy of the following test substances was characterised by determining the dose administered i.v. which reduces by 50% the increased blood flow through the skin of the face which has been brought about by endogenous CGRP: • (A) =1-[N^2-[3,5-dibromo-N-[[4-(3,4-dihydro-2(1H)-oxoquinazolin-3-yl)-1-piperidinyl]carbonyl]-D-tyrosyl]-L-lysyl]-4-(4-pyridinyl)-piperazine, • (B) =1-[4-amino-3,5-dibromo-N-[[4-(2,3,4,5-tetrahydro-2(1 H)-oxo-1,3-benzodiazepin-3-yl)-1-piperidinyl]carbonyl]-D-phenylalanyl]-4-(1-piperidinyl)-piperidine, • (AC) =(R,S)-1-[4-[4-(3,4-dihydro-2(1H)-oxoquinazolin-3-yl)-1-piperidinyl]-2-[(3,5-dibromo-4-methylphenyl)methyl]-1,4-dioxobutyl]-4-(4-methyl-1-piperazinyl)-piperidine, • (AM) =1-[4-amino-3,5-dibromo-N-[[4-(3,4-dihydro-2(1H)-oxoquinazolin-3-yl)-1-piperidinyl]carbonyl]-D-phenylalanyl]-4-(1-piperidinyl)-piperidine, • (DA =sumatriptan and • (DB) =zolmitriptan. Description of Method:
Marmosets of both sexes (300-400 g) are anaesthetised with pentobarbital (initially with 30 mg/kg, i.p., followed by infusion of 6 mg/kg/h, […].). The body temperature is maintained at 37° C. using a heating plate. Pancurmium is administered as a muscle relaxant (initially 1 mg/kg, 0.5 mg after each hour thereafter). The animal's head is secured in a stereotactical apparatus. After the skin on the head has been opened using a lengthwise incision, a small hole is drilled in the skull and a bipolar electrode (Rhodes SNES 100) is lowered into the trigeminal ganglion.
The petrous bone serves as a guide for placing the electrode (CCX-Digital X-ray apparatus). The position of the electrode in the ganglion is monitored at the end of each experiment. The stimulation parameters are: • 10Hz, 2 mA, 2 msec, for 30 sec.
The blood flow in the micro-vessels of the facial skin is determined by laser Doppler flow measurement using a PeriFlux Laser Doppler System.
The animals are exposed to 2 to 3 stimulation periods at intervals of 30 min in each case. The first stimulation serves as a reference value for the other stimulations. The test substances are administered i.v. 5 min before the 2nd and 3rd stimulation periods.

| Compound | 50% dose = i.v. dose which reduces by 50% the increased blood flow through the facial skin caused by endogenous CGRP [mg/kg] |
| --- | --- |
| Cc1c(Br)cc(C[C@H](CC(=O)N2CCC(N3Cc4ccccc4NC3=O)CC2)C(=O)N2CCC(N3CCN(C)CC3)CC2)cc1Br (racemic) [Substance AC, (R,S)-1-[4-[4-(3,4-dihydro-2(1H)-oxoquinazolin-3-yl)-1-piperidinyl]-2-[(3,5-dibromo-4-methylphenyl)methyl]-1,4-dioxobutyl]-4-(4-methyl-1-piperazinyl)-piperidine] | 0.018 |
| NCCCC[C@H](NC(=O)[C@@H](Cc1cc(Br)c(O)c(Br)c1)NC(=O)N1CCC(N2Cc3ccccc3NC2=O)CC1)C(=O)N1CCN(c2ccncc2)CC1 [Substance A, 1-[N^2-[3,5-dibromo-N-[[4-(3,4-dihydro-2(1H)-oxoquinazolin-3-yl)-1-piperidinyl]carbonyl]-D-tyrosyl]-L-lysyl]-4-(4-pyridinyl)-piperazine] | 0.003 |
| Nc1c(Br)cc(C[C@@H](NC(=O)N2CCC(N3Cc4ccccc4NC3=O)CC2)C(=O)N2CCC(N3CCCCC3)CC2)cc1Br [Substance AM, 1-[4-amino-3,5-dibromo-N-[[4-(3,4-dihydro-2(1H)-oxoquinazolin-3-yl)-1-piperidinyl]carbonyl]-D-phenylalanyl]-4-(1-piperidinyl)-piperidine] | 0.046 |
| Nc1c(Br)cc(C[C@@H](NC(=O)N2CCC(N3CCc4ccccc4NC3=O)CC2)C(=O)N2CCC(N3CCCCC3)CC2)cc1Br [Substance B, 1-[4-amino-3,5-dibromo-N-[[4-(2,3,4,5-tetrahydro-2(1H)-oxo-1,3-benzodiazepin-3-yl)-1-piperidinyl]carbonyl]-D-phenylalanyl]-4-(1-piperidinyl)-piperidine] | 0.042 |
| CNS(=O)(=O)Cc1ccc2[nH]cc(CCN(C)C)c2c1 [Substance DA, sumatriptan, reference compound] | 0.280 |
| CN(C)CCc1c[nH]c2ccc(C[C@H]3COC(=O)N3)cc12 [Substance DB, zolmitriptan, reference compound] | 0.035 |
